Experiments:
MAO-B = MAO-B inhibition ex vivo in DSP-4 treated mice (brain); design: species or system mouse
Method: Biochem. Pharmacol. 31: 1417-1424. Radiolabelled β-phenylethylamine was employed as a substrate for monoamine oxidase-B. The compounds of interest were either injected intraperitoneally in DMSO or administered by gavage in water for various periods. The animals were killed by decapitation and the brains and livers immediately removed and frozen until assayed for monoamine oxidase-B activity. Tissues were homogenized and appropriately diluted in buffer prior to incubation. Incubations proceeded at 37° C. for 10 minutes. Incubation was terminated by the addition of acid and the radiolabelled product (phenylacetic acid) was extracted and quantified by liquid scintillation counting procedures. Incubations were done in triplicate and incubations containing phenelzine were included for comparison. The percent inhibition of monoamine oxidase-B activity compared to controls containing no drug was calculated.
Neuroprotectant activity was evaluated by examining the prevention of DSP-4 induced noradrenaline depletion in mouse hippocampus as described in Yu, P. H., Davis, B. A., Fang, J. and Boulton, A. A. (1994), Neuroprotective effect of some monoamine oxidase-B inhibitors against DSP-4 induced noradrenaline depletion in the mouse hippocampus, J. Neurochem. 63: 1820-1828. Briefly, mice were injected (i.p.) with either 20% DMSO or potential neuroprotectants (10 mg/kg in 20% DMSO). […]

PC12 cells = test: PC12 neurite outgrowth (neurotrophic effect); type: cell-based; conditions: for Index of Neurite Outgrowth: seven days
Method: The effects of CVT-P040 on neurite outgrowth in cell culture were investigated using an established PC 12 pheochromocytoma cell culture. The effects of CVT-P040 and nerve growth factor on neurite outgrowth were estimated using the method described by Rydel, R. E and Greene, L. A.(1987), Acidic and basic fibroblast growth factors promote stable neurite outgrowth and basic neuronal differentiation in cultures of PC12 cells, J. Neuroscience 7: 3639-3653. Briefly, PC12 cells were seeded and maintained in 100 cm^2 tissue culture dishes at 37° C. in RPMI1640 media containing 1% antibiotics, 10% heat inactivated horse serum and 5% fetal bovine serum in a water saturated atmosphere of 95% air and 5% CO2. The cells were mechanically dislodged and plated into 35 mm collagen-coated tissue culture dishes containing a total of 2.0 ml complete medium at a density of […]. The medium was changed 3 times/week. Cellular responses to CVT-P040 and nerve growth factor (NGF) were determined by counting the number of PC12 cells containing processes. Photographs of the cells were taken after seven days treatment. Two cell fields were chosen in each dish and the photographs developed and printed. […] The neurite index was calculated using the following formula; Neurite Index=total neurite score (ΣS)/ total cell number (ΣN); ΣS=S1×N+S2×N +S3×N+S4×N, where N is the number of cells in each cell field.

[1] = tested on: serotonin uptake in rat striatal prisms; test: Serotonin (5-HT) uptake inhibition in rat striatal prisms in vitro; type: biochemical
Method: CVT-P040 was evaluated for the ability to inhibit serotonin uptake in rat striatal prisms using the procedure of Martin, I. L., Baker, G. B. and Mitchell, P. R. (1978), The effect of viloxazine hydrochloride on the transport of noradrenaline, dopamine, 5-hydroxytryptamine and γ-aminobutyric acid in rat brain tissue Neuropharmacology 17: 421-423. Briefly, untreated rats were killed by guillotine decapitation, their brains removed, placed on an ice-cooled plate and the striatum was dissected out from the rest of the brain. The striatum was then chopped into 0.1×0.1×2 mm prisms using a Mcllwain tissue chopper and suspended in 5 volumes incubation medium containing 123 mM sodium chloride, 5 mM potassium chloride, 2.7 mM calcium chloride, 1.2 mM magnesium sulphate, 20 mM TRIS-HCl buffer (pH 7.5), 1 mM ascorbic acid, 10 mM glucose and 12.5 μM nialamide. The suspension was stored out of direct light and buried in ice. Aliquots (1 ml) of the tissue suspension were added to flasks containing 4 ml of incubation medium and this mixture was incubated for 15 min at 37° C. in a shaking water bath. Next, 10 µl of the appropriate chemical was added to each tube except the blanks and controls, followed by the addition of 10 μl of ^3 H-5-HT (final concentration 0.1 μM). The mixtures were incubated for 5 min at 37° C., then quickly filtered with a Millipore vacuum filter apparatus and rinsed two times with 5 ml warm (37° C.) incubation medium. Filters were transferred to scintillation vials and 10 ml Ready Safe scintillation cocktail was added to each. Radioactive content per tube was counted using a liquid scintillation spectrophotometer. Percent 5-HT uptake inhibition was calculated by applying the following equation: [formula]

[2] = tested on: DSP-4 induced noradrenaline depletion in mouse hippocampus; test: Prevention of DSP-4 induced noradrenaline depletion in mouse hippocampus; type: in vivo; conditions: 10 mg/kg then DSP-4 50 mg/kg; saline control experiment

Compound | MAO-B % Inhibition (MAO-B; 10 mg/kg i.p. then DSP-4 50 mg/kg, 20% DMSO control experiment) | neurite index on coadministration with NGF (PC12 cells; CVT-P040 100 μM with 0.3 or 1.0 ng/ml NGF, against NGF alone, in words) | Index of Neurite Outgrowth (PC12 cells; CVT-P040 100 μM with NGF 0.1 ng/ml) | Index of Neurite Outgrowth (PC12 cells; CVT-P040 100 μM with NGF 0.3 ng/ml) | Index of Neurite Outgrowth (PC12 cells; CVT-P040 100 μM with NGF 1.0 ng/ml) | neurite outgrowth in PC12 cells (PC12 cells; CVT-P040 100 μM, in words) | Index of Neurite Outgrowth (PC12 cells; CVT-P040 100 μM) | % Inhibition (serotonin uptake) ([1]; 1 × 10^-4 M) | % Inhibition (serotonin uptake) ([1]; 1 × 10^-5 M) | % Inhibition (serotonin uptake) ([1]; 1 × 10^-6 M) | MAO-B % Inhibition (MAO-B; 10 mg/kg then DSP-4 50 mg/kg, saline control experiment) | % NA Restoration [2] | NA [2]
C#CCN(N)CCc1ccccc1 [CVT-P040, N^1 -propargylphenelzine] | 20.3% | increased the neurite index above those cultures receiving 0.3 or 1.0 ng/ml NGF alone | 0.55 ± 0.03 | 0.97 ± 0.06 | 1.53 ± 0.07 | increased neurite outgrowth in PC12 cells | 0.35 ± 0.03 | 90.1 ± 3.3% | 50.2 ± 2.5% | 49.1 ± 4.3% | – | – | –
C#CCN(CCc1ccccc1)NC(C)=O [CVT-P041, N^1 -propargyl-N^2 -acetylphenelzine] | – | – | – | – | – | – | – | 22.2 ± 4.6% | – | – | -3.7% | -43.2% | 168 ± 31 ng/g
